# Laboratory results: US12599590B2 (TriviumVet DAC, priority 2019, dated 2026)
# Legend:
# [1] = Canine pharmacokinetics of enteric coated formulations at 0.15 mg/kg (T1) and 0.75 mg/kg (T5); assay type: in vivo; conditions: dogs, oral enteric coated formulation; for AUC(0-inf) / AUC(0-t) / Cmax / Tmax / half-life: dog, blood, po
# [2] = typical gastric pH range; cited from earlier work
# [3] = cited from earlier work
# healthy dogs = conditions: 0.05 or 0.1 mg/kg orally three times per week, 10 weeks; cited from earlier work
# [4] = Feline repeat dose toxicokinetic study of oral enteric-coated formulations; assay type: in vivo; conditions: whole blood, cats, oral enteric-coated formulation, Mean; for AUC(0-t): read-out: AUC0-72
# Description: This represents a first-in-species repeat dose test toxicokinetic study in cats. Pharmacokinetic sampling was performed after the first and last doses.
# [5] = 0.15 mg/kg, T1 0.15 mg/kg, Arith. Mean
# [6] = 0.15 mg/kg, T1 0.15 mg/kg, Median
# [7] = 0.75 mg/kg, T5 0.75 mg/kg, Arith. Mean
# [8] = 0.75 mg/kg, T5 0.75 mg/kg, Median
# [9] = 0.15 mg/kg, 0.15 mg/kg three times a week, Day 26, whole blood
# [10] = 0.15 mg/kg, 0.15 mg/kg, Day 0, whole blood
# [11] = 0.45 mg/kg, 0.45 mg/kg three times a week, Day 26, whole blood
# [12] = 0.45 mg/kg, 0.45 mg/kg, Day 0, whole blood
# [13] = 0.75 mg/kg, 0.75 mg/kg three times a week, Day 26, whole blood
# [14] = 0.75 mg/kg, 0.75 mg/kg, Day 0, whole blood
smiles,measurement,setting,value
CO[C@H]1C[C@@H]2CC[C@@H](C)[C@@](O)(O2)C(=O)C(=O)N2CCCC[C@H]2C(=O)O[C@H]([C@H](C)C[C@@H]2CC[C@@H](O)[C@H](OC)C2)CC(=O)[C@H](C)/C=C(\C)[C@@H](O)[C@@H](OC)C(=O)[C@H](C)C[C@H](C)/C=C/C=C/C=C/1C [rapamycin],AUC(0-inf),[1]; [5],42.7 ng·h/mL
same,AUC(0-t),[1]; [5],40.8 ng·h/mL
same,Cmax,[1]; [5],2.23 ng/mL
same,Tmax,[1]; [5],1.83 h
same,half-life,[1]; [5],16.4 h
same,AUC(0-inf),[1]; [6],38.5 ng·h/mL
same,AUC(0-t),[1]; [6],45.2 ng·h/mL
same,Cmax,[1]; [6],2.17 ng/mL
same,Tmax,[1]; [6],2 h
same,half-life,[1]; [6],13.6 h
same,AUC(0-inf),[1]; [7],102 ng·h/mL
same,AUC(0-t),[1]; [7],111 ng·h/mL
same,Cmax,[1]; [7],4.41 ng/mL
same,Tmax,[1]; [7],2.17 h
same,half-life,[1]; [7],20.2 h
same,AUC(0-inf),[1]; [8],98.4 ng·h/mL
same,AUC(0-t),[1]; [8],96.9 ng·h/mL
same,Cmax,[1]; [8],3.14 ng/mL
same,Tmax,[1]; [8],2 h
same,half-life,[1]; [8],20.5 h
same,kelim,"[1]; T1 0.15 mg/kg, Arith. Mean",0.0596 h⁻¹
same,kelim,"[1]; T1 0.15 mg/kg, Median",0.0627 h⁻¹
same,kelim,"[1]; T5 0.75 mg/kg, Arith. Mean",0.0357 h⁻¹
same,kelim,"[1]; T5 0.75 mg/kg, Median",0.0338 h⁻¹
same,acid stability,[2],rapidly degrades within the typical gastric pH range
same,solubility in water,[3],poorly soluble in water
same,clinical side effects and hematological changes,healthy dogs,did not cause significant clinical side effects or abnormal hematological changes
same,Cmax,[4]; [9],2.26 ng/mL
same,AUC(0-t),[4]; [9],54 ng·h/mL
same,Cmax,[4]; [10],2.85 ng/mL
same,Tmax,[4]; [10],4 h
same,AUC(0-t),[4]; [10],41 ng·h/mL
same,Cmax,[4]; [11],6.98 ng/mL
same,Tmax,[4]; [11],2 h
same,AUC(0-t),[4]; [11],182 ng·h/mL
same,Cmax,[4]; [12],4.4 ng/mL
same,AUC(0-t),[4]; [12],99.5 ng·h/mL
same,Cmax,[4]; [13],8.07 ng/mL
same,Tmax,[4]; [13],2 h
same,AUC(0-t),[4]; [13],248 ng·h/mL
same,Cmax,[4]; [14],7.56 ng/mL
same,Tmax,[4]; [14],2 h
same,AUC(0-t),[4]; [14],135 ng·h/mL
